This is an account of results in paper PMC10978157, “Environmental exposure to glyphosate does not inhibit human acetylcholinesterase and butyrylcholinesterase” (Archives of Industrial Hygiene and Toxicology, 2024).

Common to all, as to format: biochemical
Assay [1] addresses T1, human BChE isolated from plasma (Homo sapiens, UniProt P06276).
T1 construct: native, purified from human plasma, gift from F. Nachon
The assay can be described thus: Ellman assay. The source says:
Ellman assay on human BChE isolated from plasma
For orientation: Ellman's reagent forms a yellow product with free thiols.

In assay [2] the target is T2, human recombinant AChE (Homo sapiens, UniProt P22303).
T2 construct: recombinant human AChE, gift from F. Nachon
T2 sequence (P22303 32-614): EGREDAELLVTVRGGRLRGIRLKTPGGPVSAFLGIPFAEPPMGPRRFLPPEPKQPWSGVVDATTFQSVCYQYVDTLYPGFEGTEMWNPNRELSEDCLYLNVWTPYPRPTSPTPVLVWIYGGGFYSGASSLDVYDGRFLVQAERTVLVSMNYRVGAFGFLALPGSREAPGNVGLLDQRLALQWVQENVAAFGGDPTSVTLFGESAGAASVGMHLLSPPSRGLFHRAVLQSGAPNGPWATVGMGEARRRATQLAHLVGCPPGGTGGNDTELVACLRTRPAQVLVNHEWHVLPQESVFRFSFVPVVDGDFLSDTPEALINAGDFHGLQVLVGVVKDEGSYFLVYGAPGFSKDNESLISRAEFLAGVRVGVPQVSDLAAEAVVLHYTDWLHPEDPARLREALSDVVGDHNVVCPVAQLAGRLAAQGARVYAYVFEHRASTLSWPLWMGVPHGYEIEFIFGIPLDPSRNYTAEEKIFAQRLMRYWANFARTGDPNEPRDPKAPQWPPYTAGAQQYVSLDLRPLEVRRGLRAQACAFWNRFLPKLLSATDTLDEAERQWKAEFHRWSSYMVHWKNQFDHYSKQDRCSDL
In words: Ellman assay; joint IC50 over all ATCh concentrations. The settings on record: read-out: Approx. IC50. An excerpt: Ellman assay; joint IC50 over all ATCh concentrations on human recombinant AChE

The target of assay [3] is T1, human BChE isolated from plasma. The assay is described as above. The settings on record: read-out: Approx. IC50. An excerpt:
Ellman assay; joint IC50 over all ATCh concentrations on human BChE isolated from plasma

The target in assay [4] is T2, human recombinant AChE. In words: Ellman assay. An excerpt:
Ellman assay on human recombinant AChE

By Ki is commonly meant the dissociation constant of the complex between target and ligand, obtained from inhibition or displacement. One may read the IC50 as the concentration that inhibits the measured activity by half.

T1 sequence (P06276 29-602): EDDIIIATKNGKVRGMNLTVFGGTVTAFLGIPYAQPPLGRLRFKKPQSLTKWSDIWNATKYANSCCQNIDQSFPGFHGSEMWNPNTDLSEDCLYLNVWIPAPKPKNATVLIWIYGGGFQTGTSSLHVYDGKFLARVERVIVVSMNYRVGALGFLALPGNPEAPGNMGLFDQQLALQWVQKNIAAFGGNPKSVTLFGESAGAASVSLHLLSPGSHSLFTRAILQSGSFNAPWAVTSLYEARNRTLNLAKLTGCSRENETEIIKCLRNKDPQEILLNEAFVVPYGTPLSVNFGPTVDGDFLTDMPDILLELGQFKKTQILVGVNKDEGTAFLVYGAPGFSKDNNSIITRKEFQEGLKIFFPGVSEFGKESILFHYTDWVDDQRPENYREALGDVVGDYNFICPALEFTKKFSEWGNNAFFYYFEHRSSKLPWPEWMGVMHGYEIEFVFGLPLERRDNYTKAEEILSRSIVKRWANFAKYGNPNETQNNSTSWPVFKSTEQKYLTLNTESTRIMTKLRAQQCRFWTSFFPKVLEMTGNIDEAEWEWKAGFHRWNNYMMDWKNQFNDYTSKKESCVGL

For the compound `O=C(O)CNCP(=O)(O)O` [glyphosate, N-(phosphonomethyl)glycine], the Ki in assay [1] came out at 19.3 ± 1.8 mM; at human recombinant AChE [4], 28.4 ± 2.7 mM. The IC50 on human recombinant AChE [2] is approximately 25.1 mM; in assay [3] it was approximately 20 mM.
